Like-named read-outs stand apart in the source and are kept apart here.
What was measured:
human OX2 receptors = biological target: T1, human OX2 receptors (Homo sapiens, UniProt O43614); assay: Antagonistic activity against human OX2 receptor, [Ca2+]i fluorimetry (Fluo-4NW) in transfected HEK-293 cells activated with orexin-B; format: cell-based
T1 construct: expressed in transfected cells; host or cells: HEK-293 cells
T1 sequence (O43614 1-444): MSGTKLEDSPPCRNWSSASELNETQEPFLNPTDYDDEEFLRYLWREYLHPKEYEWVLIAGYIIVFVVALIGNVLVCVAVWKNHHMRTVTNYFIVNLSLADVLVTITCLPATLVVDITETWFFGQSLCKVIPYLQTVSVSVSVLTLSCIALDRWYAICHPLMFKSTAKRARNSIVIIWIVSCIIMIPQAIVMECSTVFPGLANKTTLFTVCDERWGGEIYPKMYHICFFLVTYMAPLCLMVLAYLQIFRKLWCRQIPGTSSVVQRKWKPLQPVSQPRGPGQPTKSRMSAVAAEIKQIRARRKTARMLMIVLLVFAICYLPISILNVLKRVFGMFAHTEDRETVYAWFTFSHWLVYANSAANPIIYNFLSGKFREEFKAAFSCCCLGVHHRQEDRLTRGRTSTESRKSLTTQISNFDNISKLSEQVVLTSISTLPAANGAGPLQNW
Protocol: (§1) In a typical experiment, the antagonistic activity against human OX1 and OX2 receptors is determined by using CHO e HEK-293 cells transfected with human recombinant OX1 and OX2 receptors respectively, seeded at density of 2 and 3×10^4 cells/well respectively in a 96 fluorimetry well plate. Thus the plate was loaded with the calcium dye (Fluo-4NW/probenecid in HBSS, Hepes 20 mM, pH 7.4; Invitrogen) at 37° C. for 60 min. Afterward the temperature was equilibrated at 22° C. for 15 min and the [Ca2+]i measured directly on the plate by using a fluorescent plate reader (CellLux Perkin Elmer).
(§2) Invention compounds were dissolved in DMSO, diluted in HBSS (DMSO, 0.3% final) and added to the wells. After 5 min CHO cells were activated with orexin-A, 3 nM while HEK-293 cells were activated with orexin-B, 10 nM.
(§3) The compounds, dissolved in DMSO and diluted in the medium (DMSO, 0.3% final), have been analysed in the 1 nM-1 μM concentration range (every concentration in duplicate). The antagonistic activity has been expressed as pKb (co-logarithm of the apparent dissociation constant calculated by using the modified Cheng Prusoff equation).
(§4) The results are expressed as percent of control specific […] response ((measured specific response/control specific agonist response)×100) obtained in the presence of the test compounds.
(§5) The IC50 values (concentration causing a half-maximal inhibition of the control specific agonist response) were determinated by non-linear regression analysis of the concentration curves generated with mean replicate values using hill equation curve fitting. The IC50 values are obtained by the arithmetical mean of at least two experiments. Compounds of the following example tested according to this example gave pKbs as follows: […]

human OX1 receptors = biological target: T2, human OX1 receptors (Homo sapiens, UniProt O43613); assay: Antagonistic activity against human OX1 receptor, [Ca2+]i fluorimetry (Fluo-4NW) in transfected CHO cells activated with orexin-A; format: cell-based; conditions: CHO cells transfected with human recombinant OX1; orexin-A 3 nM; pKb = co-logarithm of apparent dissociation constant, modified Cheng Prusoff
T2 construct: expressed in transfected cells; host or cells: CHO cells
T2 sequence (O43613 1-425): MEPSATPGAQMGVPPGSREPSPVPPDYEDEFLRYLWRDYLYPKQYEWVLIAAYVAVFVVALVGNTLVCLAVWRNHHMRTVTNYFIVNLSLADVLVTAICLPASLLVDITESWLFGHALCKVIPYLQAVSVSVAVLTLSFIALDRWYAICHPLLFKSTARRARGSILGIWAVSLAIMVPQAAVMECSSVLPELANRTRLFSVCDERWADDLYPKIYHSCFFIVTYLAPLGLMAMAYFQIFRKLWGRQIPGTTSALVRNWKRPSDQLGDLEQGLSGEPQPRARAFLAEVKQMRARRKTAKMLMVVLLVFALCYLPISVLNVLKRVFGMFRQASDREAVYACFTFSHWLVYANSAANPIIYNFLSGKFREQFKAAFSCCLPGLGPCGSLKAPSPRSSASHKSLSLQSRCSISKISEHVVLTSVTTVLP
Protocol: as §1, §2, §3, §4, §5

[1] = HEK-293 cells transfected with human recombinant OX2, orexin-B 10 nM, pKb = co-logarithm of apparent dissociation constant, modified Cheng Prusoff

Row | Structure (SMILES) | Kb (human OX2 receptors; [1]) | Kb (human OX1 receptors) | Kb (human OX2 receptors; comparison table with compound of WO2011006960, read-out: pKb OX2 (converted))
1 | O=C(c1cc(Cl)ccc1-c1ncccn1)N1CC2(CC2)C[C@H]1CNc1cc(C(F)(F)F)c(Cl)cn1 [Compound 1t, (S)-(5-chloro-2-(pyrimidin-2-yl)phenyl)(6-(((5-chloro-4-(trifluoromethyl)pyridin-2-yl)amino)methyl)-5-azaspiro[2.4]heptan-5-yl)methanone] | 20 nM | 7.94 nM | –
2 | O=C(c1c(F)cccc1-c1ncccn1)N1CC2(CC2)C[C@H]1CNc1ncc(C(F)(F)F)cc1F [Compound 1g, (S)-(6-(((3-fluoro-5-(trifluoromethyl)pyridin-2-yl)amino)methyl)-5-azaspiro[2.4]heptan-5-yl)(2-fluoro-6-(pyrimidin-2-yl)phenyl)methanone] | 39.8 nM | 1.26 nM | –
3 | Cc1cc(C(F)(F)F)cc(NC[C@@H]2CC3(CC3)CN2C(=O)c2cc(F)ccc2-c2ncccn2)n1 [Compound 1j, (S)-(5-fluoro-2-(pyrimidin-2-yl)phenyl)(6-(((6-methyl-4-(trifluoromethyl)pyridin-2-yl)amino)methyl)-5-azaspiro[2.4]heptan-5-yl)methanone] | 6.31 nM | 20 nM | –
4 | O=C(c1cc(F)ccc1-c1ncccn1)N1CC2(CC2)C[C@H]1CNc1cc(C(F)(F)F)ccn1 [Compound 1k, (S)-(5-fluoro-2-(pyrimidin-2-yl)phenyl)(6-(((4-(trifluoromethyl)pyridin-2-yl)amino)methyl)-5-azaspiro[2.4]heptan-5-yl)methanone] | 7.94 nM | 50.1 nM | –
5 | O=C(c1cc(Cl)ccc1-c1ncccn1)N1CC2(CC2)C[C@H]1CNc1cc(C(F)(F)F)ccn1 [Compound 1f, (S)-(5-chloro-2-(pyrimidin-2-yl)phenyl)(6-(((4-(trifluoromethyl)pyridin-2-yl)amino)methyl)-5-azaspiro[2.4]heptan-5-yl)methanone] | 12.6 nM | 7.94 nM | –
6 | Cc1ccc(-c2ncccn2)c(C(=O)N2CC3(CC3)C[C@H]2CNc2cc(C(F)(F)F)cc(C)n2)c1 [Compound 1m, (S)-(5-methyl-2-(pyrimidin-2-yl)phenyl)(6-(((6-methyl-4-(trifluoromethyl)pyridin-2-yl)amino)methyl)-5-azaspiro[2.4]heptan-5-yl)methanone] | 12.6 nM | 15.8 nM | –
7 | CS(=O)(=O)c1ccc(-c2ccccc2)c(C(=O)N2CC3(CC3)C[C@H]2CNc2ccc(C(F)(F)F)cn2)c1 [Compound 1d, (S)-(4-(methylsulfonyl)-[1,1′-biphenyl]-2-yl)(6-(((5-(trifluoromethyl)pyridin-2-yl)amino)methyl)-5-azaspiro[2.4]heptan-5-yl)methanone] | 79.4 nM | 200 nM | –
8 | Cc1ccc(-c2ncccn2)c(C(=O)N2CC3(CC3)C[C@H]2CNc2ncc(C(F)(F)F)cc2F)c1 [Compound 1l, (S)-(6-(((3-fluoro-5-(trifluoromethyl)pyridin-2-yl)amino)methyl)-5-azaspiro[2.4]heptan-5-yl)(5-methyl-2-(pyrimidin-2-yl)phenyl)methanone] | 25.1 nM | 5.01 nM | –
9 | O=C(c1cc(Cl)ccc1-c1ncccn1)N1CC2(CC2)C[C@H]1CNc1ccc(C(F)(F)F)cn1 [Compound 1a, (S)-(5-chloro-2-(pyrimidin-2-yl)phenyl)(6-(((5-(trifluoromethyl)pyridin-2-yl)amino)methyl)-5-azaspiro[2.4]heptan-5-yl)methanone] | 63.1 nM | 7.94 nM | –
10 | Cc1ccc(-c2ncccn2)c(C(=O)N2CC3(CC3)C[C@H]2CNc2ccc(Cl)cn2)c1 [Example 51 of WO2011006960, reference compound] | – | – | > 10000 nM

Results, then the molecule that gave them:

Row | Kb (human OX2 receptors; [1]) | Kb (human OX1 receptors) | Kb (human OX2 receptors; comparison table with compound of WO2011006960, read-out: pKb OX2 (converted)) | Structure (SMILES)
11 | 31.6 nM | 39.8 nM | – | Cc1ccc(-c2ccc(C)nc2C(=O)N2CC3(CC3)C[C@H]2CNc2ccc(C(F)(F)F)cn2)c(F)c1 [Compound E4, (S)-(3-(2-fluoro-4-methylphenyl)-6-methylpyridin-2-yl)(6-(((5-(trifluoromethyl)pyridin-2-yl)amino)methyl)-5-azaspiro[2.4]heptan-5-yl)methanone]
12 | 10 nM | 2.51 nM | – | Cc1ccc(-c2ccccc2)c(C(=O)N2CC3(CC3)C[C@H]2CNc2ccc(C(F)(F)F)cn2)n1 [Compound 3b, (S)-(6-methyl-3-phenylpyridin-2-yl)(6-(((5-(trifluoromethyl)pyridin-2-yl)amino)methyl)-5-azaspiro[2.4]heptan-5-yl)methanone]
13 | 10 nM | 2.51 nM | – | Cc1ccc(-c2nccs2)c(C(=O)N2CC3(CC3)C[C@H]2CNc2ccc(C(F)(F)F)cn2)n1 [Compound 3q, (S)-(6-methyl-3-(thiazol-2-yl)pyridin-2-yl)(6-(((5-(trifluoromethyl)pyridin-2-yl)amino)methyl)-5-azaspiro[2.4]heptan-5-yl)methanone]
14 | 50.1 nM | 10 nM | – | O=C(c1ncccc1-c1ccccc1)N1CC2(CC2)C[C@H]1CNc1ccc(C(F)(F)F)cn1 [Compound E5, (S)-(3-phenylpyridin-2-yl)(6-(((5-(trifluoromethyl)-pyridin-2-yl)amino)methyl)-5-azaspiro[2.4]heptan-5-yl)methanone]
15 | 158 nM | 158 nM | – | Cc1nc(C(=O)N2CC3(CC3)C[C@H]2CNc2ncc(Cl)cn2)c(-c2ccccc2)s1 [Compound 2g, (S)-(6-(((5-chloropyrimidin-2-yl)amino)methyl)-5-azaspiro[2.4]heptan-5-yl)(2-methyl-5-phenylthiazol-4-yl)methanone]
16 | 15.8 nM | 1.26 nM | – | Cc1ccc(-n2ccc(C)n2)c(C(=O)N2CC3(CC3)C[C@H]2CNc2ccc(C(F)(F)F)cn2)n1 [Compound 3j, (S)-(6-methyl-3-(3-methyl-1H-pyrazol-1-yl)pyridin-2-yl)(6-(((5-(trifluoromethyl)pyridin-2-yl)amino)-methyl)-5-azaspiro[2.4]heptan-5-yl)methanone]
17 | 200 nM | 100 nM | – | Cc1ccc(-c2cccnc2)c(C(=O)N2CC3(CC3)C[C@H]2CNc2ccc(C(F)(F)F)cn2)n1 [Compound E6, (S)-(6-methyl-[3,3′-bipyridin]-2-yl)(6-(((5-(trifluoromethyl)pyridin-2-yl)amino)methyl)-5-azaspiro[2.4]heptan-5-yl)methanone]
18 | 10 nM | 3.98 nM | – | Cc1ccc(-c2ncccn2)c(C(=O)N2CC3(CC3)C[C@H]2CNc2ncc(C(F)(F)F)cc2F)n1 [Compound 3d, (S)-(6-(((3-fluoro-5-(trifluoromethyl)pyridin-2-yl)amino)methyl)-5-azaspiro[2.4]heptan-5-yl)(6-methyl-3-(pyrimidin-2-yl)pyridin-2-yl)methanone]
19 | 2.51 nM | 15.8 nM | – | Cc1cc(C(F)(F)F)cc(NC[C@@H]2CC3(CC3)CN2C(=O)c2nc(C)sc2-c2ccccc2)n1 [Compound 2k, (S)-(6-(((6-methyl-4-(trifluoromethyl)pyridin-2-yl)amino)methyl)-5-azaspiro[2.4]heptan-5-yl)(2-methyl-5-phenylthiazol-4-yl)methanone]
20 | 79.4 nM | 5.01 nM | – | Cc1nc(C(=O)N2CC3(CC3)C[C@H]2CNc2ccc(Cl)cn2)c(-c2ccccc2)s1 [Compound 2a, (S)-(6-(((5-chloropyridin-2-yl)amino)methyl)-5-azaspiro[2.4]heptan-5-yl)(2-methyl-5-phenylthiazol-4-yl)methanone]
21 | 12.6 nM | 2.51 nM | – | O=C(c1nc(C2CC2)ccc1-c1ccccc1)N1CC2(CC2)C[C@H]1CNc1ccc(C(F)(F)F)cn1 [Compound 3r, (S)-(6-cyclopropyl-3-phenylpyridin-2-yl)(6-(((5-(trifluoromethyl)pyridin-2-yl)amino)methyl)-5-azaspiro[2.4]heptan-5-yl)methanone]

— US9062033B2, “Chemical compounds” (Rottapharm Biotech S.r.l., priority 2011, dated 2015)
